# Experimental data taken from patent US20240110004A1 (Northwestern University, priority 2022, published 2024).
# Where no end group is shown, it is not given here.
# Key:
# [1] = mouse, in vivo
# [2] = tested on: HdhQ111 cells; assay: Cell uptake by confocal microscopy and flow cytometry; assay type: cell-based, mouse; settings: compared to the HV3-TAT-Rho peptide and rhodamine dye control
# Description: Scale bars: 60 μm; 12 μm for inset. Cell Membrane: wheat germ agglutinin-Alexa 488 (green channel). Material: Rhodamine (red channel). Nuclei: Hoechst 33342 stain (blue channel).
# Cell Uptake Methods: A major drawback for most peptide-based drugs is poor innate cell membrane permeability, such that many peptide-based drugs fail to reach their putative intracellular targets. Cellular uptake was evaluated by confocal microscopy and flow cytometry using a rhodamine dye labeled version of HV3-TAT (HV3-TAT-Rho) and a rhodamine labeled version of P1 (P1-Rho, e.g., as shown in FIG. 28A). FIG. 28B provides the relative fluorescent intensities of rhodamine alone, HV3-TAT-Rho, and P1-Rho—rhodamine showing near 1:1 addition of dye on to compounds.
# [3] = tested on: HdhQ111 cells; assay: Accumulation assay, flow cytometry 2 and 7 days after a single treatment; assay type: cell-based, mouse; settings: two and seven days after one treatment
# [4] = tested on: HdhQ111 cells; assay: Mitochondrial localization in live HdhQ111 cells; assay type: cell-based, mouse; settings: 3 μM, Mitotracker staining
# Description: FIG. 7: Mitochondrial localization in live HdhQ111 cells. HdhQ111 cells were treated with HV3-TAT-Rho peptide, P1-Rho, and rhodamine dye alone at a concentration of 3 μM. Yellow (i.e., “localization” in FIG. 7) indicates colocalization of green and red channels, signifying localization to the mitochondria. Mitochondria: Mitotracker Green FM (green channel). Material: Rhodamine (red channel). Nuclei: Hoechst 33342 stain (blue channel). Scale Bars: 60 μm; 12 μm for inset.
# Mitochondrial Localization Methods: A decisive pathologic hallmark for HdhQ111 cells is mitochondrial fragmentation. Since the mitochondrial membrane is the specific intracellular target location for the designed system, mitochondrial localization of P1-Rho in HdhQ111 cells was evaluated. To visualize mitochondrial localization, the mitochondria were stained with Mito Tracker.
# [5] = tested on: HdhQ111 cells; assay: Cell viability (cell rescue) of serum-starved HdhQ111 cells; assay type: cell-based, mouse; settings: 3 μM with respect to peptide, once a day for 3 days; compared to the vehicle control
# Description: FIG. 3A: Cell viability of HV3-TAT peptide and PLPs. Compounds treated to the HdhQ111 cells once a day for 3 days. Concentration was 3 μM with respect to peptide. FIG. 3B: VCP binding assay results for HV3-TAT, P1, P2, and P4.
# Cell Viability Methods: In vitro assays were carried out to examine the bioactivity of the PLPs, P1, P2, P3, and P4 and to compare against the known, active HV3-TAT. […] HdhQ111 cells were immortalized from knock-in mice carrying 111 CAG repeats in the mouse Htt gene.
# To verify that the PLPs retain bioactivity after being exposed to enzymes or serum treatments, the viability of HD mouse mutant striatal HdhQ111 cells was assessed following treatment with HV3-TAT and P1. […] Cells were maintained at 33° C. and 5% CO2 with a relative humidity of 95%. HdQ111 cells were plated in 96-well plates at a density of 5000 per well and then left to attach for 24 h. Cells were treated with HV3-TAT or PLPs at 3 μM with respect to peptide once a day, for 3 days. The medium was replaced every day. After 72 h, cells were washed 3 times with PBS buffer. At this point, 20 μL of CTB reagent in 80 uL of medium was added, and the cells incubated for 3 hours at 37° C. Fluorescence was measured at 590 nm with excitation at 560 nm using a Perkin Elmer EnSpire plate reader. The average background fluorescence of CTB in media without cells was subtracted from the average fluorescence readings of the experimental wells. Viability was calculated as the average background-subtracted signal in a well compared to that of a negative control well (treatment with vehicle or media). Three replicates were performed for each independent sample. 10% DMSO was used as a positive control and untreated cells in complete medium as a negative control. Viability is reported as a percentage of untreated cells.
# [6] = biological target: T1, interaction between VCP and mtHtt (Homo sapiens, UniProt P55072); assay: VCP binding assay: association of VCP to mtHtt by immunoprecipitation and western blot in HEK293 cells; assay type: cell-based; settings: HEK293 cells co-transfected with GFP-VCP and myc-Q73 FL, 3 μM, three doses
# T1 construct: GFP; expressed in transfected cells; host or cells: HEK293
# T1 sequence (P55072 whole entry): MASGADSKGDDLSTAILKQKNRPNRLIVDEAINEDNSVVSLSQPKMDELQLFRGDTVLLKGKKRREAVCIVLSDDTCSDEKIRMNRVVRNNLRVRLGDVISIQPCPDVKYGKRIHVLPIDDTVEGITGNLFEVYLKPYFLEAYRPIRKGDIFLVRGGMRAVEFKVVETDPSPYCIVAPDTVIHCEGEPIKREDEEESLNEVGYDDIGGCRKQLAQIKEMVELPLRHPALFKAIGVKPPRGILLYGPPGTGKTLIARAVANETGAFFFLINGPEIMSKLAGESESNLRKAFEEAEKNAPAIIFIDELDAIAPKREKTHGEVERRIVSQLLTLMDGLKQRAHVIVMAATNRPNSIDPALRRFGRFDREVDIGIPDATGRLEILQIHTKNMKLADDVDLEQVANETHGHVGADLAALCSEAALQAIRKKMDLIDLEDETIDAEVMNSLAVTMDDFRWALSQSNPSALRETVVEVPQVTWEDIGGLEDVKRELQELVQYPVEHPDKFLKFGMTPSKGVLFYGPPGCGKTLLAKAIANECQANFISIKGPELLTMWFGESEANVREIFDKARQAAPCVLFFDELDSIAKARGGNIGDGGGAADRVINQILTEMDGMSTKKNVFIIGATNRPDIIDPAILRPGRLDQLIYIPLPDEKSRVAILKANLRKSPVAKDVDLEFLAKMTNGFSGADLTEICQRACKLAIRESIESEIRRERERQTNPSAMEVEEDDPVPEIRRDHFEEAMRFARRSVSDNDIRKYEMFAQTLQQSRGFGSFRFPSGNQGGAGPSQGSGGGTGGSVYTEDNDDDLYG
# Description: Therefore, target engagement protein binding assays were conducted. HEK293 cells were cultured and plated one day before treatment. Cells were pre-treated with HV3-TAT or PLPs at 3 μM for 2 h. Cells were then co-transfected with GFP-VCP and myc-Q73 FL plasmids. Cells were treated with a second dose of peptide or PLPs 6 hours after transfection, and a final third dose of peptide or PLPs treatment was administered 24 hours after transfection. Cell total lysate was harvested 48 hours after transfection, and to confirm binding of PLPs to VCP in cells, association of VCP to mtHtt was quantified by immunoprecipitation (IP) followed by western blot upon treatment of HV3-TAT peptide and PLPs.
# [7] = tested on: HdhQ111 cells; assay: Mitochondrial fragmentation assay; assay type: cell-based, mouse; settings: compared to vehicle treatment group, at least 100 cells per group
# Description: FIG. 8: Mitochondrial fragmentation assay. The percentage of HdhQ111 cells with fragmented mitochondria relative to the total number of cells was quantitated. At least 100 cells per group were counted.
# FIG. 9: Mitochondrial fragmentation assay. Mitochondrial morphology was determined by staining cells with anti-Tom20 antibody. Nuclei: Hoechst 33342 stain. […] Scale Bars: 60 μm; 12 μm for inset.
# Mitochondrial Fragmentation Methods: As preventing the fragmentation of the mitochondria is important for maintaining the health of striatal cells in the HD in vitro model, the PLP's abilities were tested in this regard.
# [8] = Dulbecco's modified Eagle medium (DMEM) supplemented with 25% fetal bovine serum (FBS); settings: 37° C.
# [9] = enzymes (0.1 μM) in DPBS (pH 7.4) or hydrochloric acid solution (pH 2); settings: 37° C.
# [10] = Dulbecco's modified Eagle medium (DMEM) supplemented with 10% fetal bovine serum (FBS); settings: 37° C.
# [11] = tested on: pepsin; assay: pepsin; settings: 37° C., up to 450 min
substance,measurement,setting,value
"P1-Gd: P1 PLP terminated with the Gd-DOTA terminating agent (contrast agent tag) for ICPMS quantification (HVLVMSATRR-NH2; not fully specified (N-terminus); also: side chains of polynorbornene homopolymer (PLP, ROMP), Gd-DOTA terminating agent on polymer terminus)","biodistribution, main organs",[1],majority of the compound injected ends up in the liver and kidney
same,detection in the CNS,[1],detectable in the CNS
same,increase in half-life compared to the HV3-TAT peptide,[1],3000 fold
same,distribution half-life,"[1]; iv, 10 mg/kg",0.333 h
same,elimination half-life,"[1]; iv, 10 mg/kg",152 h
"P1-Rho: rhodamine labeled version of P1 (HVLVMSATRR-NH2; not fully specified (N-terminus); also: side chains of polynorbornene homopolymer (PLP), rhodamine label (site not given here))",cell association by flow cytometry,[2],significantly better cell association
same,presence of compound in cells after one initial treatment,[3],detected
same,mitochondrial localization,[4],exhibited overlapping signals with mitochondria
P2: PLP homopolymer having peptide side chains of SEQ ID: 2 (HVLVMSATKK) (HVLVMSATKK-NH2; not fully specified (N-terminus); also: side chains of polynorbornene homopolymer (PLP)),cell viability,[5],higher significance than P3
P4: PLP homopolymer having peptide side chains of SEQ ID: 4 (HVLVMSATKKKK) (HVLVMSATKKKK-NH2; not fully specified (N-terminus); also: side chains of polynorbornene homopolymer (PLP)),association of VCP to mtHtt (VCP binding),[6],exhibited evidence for binding
same,cell viability,[5],higher significance than P3
same,fragmented mitochondria,[7],significantly fewer fragmented mitochondria
PLP homopolymer having peptide side chains of SEQ ID: 1 (HVLVMSATRR),not cleaved,[8],stability of P1 seen with serum treatments
same,not cleaved,[9],maintained molecular weight running together with the untreated P1 control
same,not cleaved,[10],stability of P1 seen with serum treatments
same,not cleaved,[11],no cleavage observed for up to 450 min
